± gives the expanded uncertainty stated by the source.
Test: molar enthalpy of vaporization or sublimation
Settings: 298.15 K; Crystal; Static calorimetry

Row | SMILES | molar enthalpy [kcal/mol]
1 | CC(=O)c1cccc(C#N)c1 [3-acetylbenzonitrile] | 22.6 ± 0.359
2 | N#CCC(=O)c1ccccc1 [3-oxo-3-phenylpropanenitrile] | 23.5 ± 0.502

Source: the NIST ThermoML archive (doi:10.1016/j.jct.2015.08.008)
